According to PubChem BioAssay AID2060492 (Molecular Pharmacology Branch, DTP, NCI, 2025):
Blank lines part the entries; values can stand above or below the compound they belong to.

System: 695427-040-R-J1-PDC complex spheroids, viability percent T/C
Experiment: Anticancer human tumor 695427-040-R-J1-PDC patient-derived colon adenocarcinoma cell line growth inhibition [GQUAD]
Conditions: for IC50: curve of first compound; for viability, T/C: stronger effect = lower value
Outline: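 Multi-cell-type spheroids of tumor cells with HUVEC and mesenchymal stem cells, treated with drug combinations. Concentrations descend in half-log steps from near clinical Cmax, or from 10 microM where Cmax is unknown; viability read-out.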

[1] = second compound 0.0316 µM, first compound 0.0316 µM
[2] = second compound 0.0316 µM, first compound 0.1 µM
[3] = second compound 0.0316 µM, first compound 0.316 µM
[4] = second compound 0.0316 µM, first compound 1 µM
[5] = second compound 0.0316 µM, first compound 3.16 µM
[6] = second compound 0.0316 µM, first compound 10 µM
[7] = second compound 0.1 µM, first compound 0.0316 µM
[8] = second compound 0.1 µM, first compound 0.1 µM
[9] = second compound 0.1 µM, first compound 0.316 µM
[10] = second compound 0.1 µM, first compound 1 µM
[11] = second compound 0.1 µM, first compound 3.16 µM
[12] = second compound 0.1 µM, first compound 10 µM
[13] = second compound 0.316 µM, first compound 0.0316 µM
[14] = second compound 0.316 µM, first compound 0.1 µM
[15] = second compound 0.316 µM, first compound 0.316 µM
[16] = second compound 0.316 µM, first compound 1 µM
[17] = second compound 0.316 µM, first compound 3.16 µM
[18] = second compound 0.316 µM, first compound 10 µM
[19] = second compound 1 µM, first compound 0.0316 µM
[20] = second compound 1 µM, first compound 0.1 µM
[21] = second compound 1 µM, first compound 0.316 µM
[22] = second compound 1 µM, first compound 1 µM
[23] = second compound 1 µM, first compound 3.16 µM
[24] = second compound 1 µM, first compound 10 µM
[25] = second compound 3.16 µM, first compound 0.0316 µM
[26] = second compound 3.16 µM, first compound 0.1 µM
[27] = second compound 3.16 µM, first compound 0.316 µM
[28] = second compound 3.16 µM, first compound 1 µM
[29] = second compound 3.16 µM, first compound 3.16 µM
[30] = second compound 3.16 µM, first compound 10 µM
[31] = second compound 10 µM, first compound 0.0316 µM
[32] = second compound 10 µM, first compound 0.1 µM
[33] = second compound 10 µM, first compound 0.316 µM
[34] = second compound 10 µM, first compound 1 µM
[35] = second compound 10 µM, first compound 3.16 µM
[36] = second compound 10 µM, first compound 10 µM
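Note: spheroids exposed to compounds for seven days before readout.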

- IC50 (second compound 0.0316 µM): > 10 µM
- IC50 (second compound 0.1 µM): > 10 µM
- IC50 (second compound 0.316 µM): > 10 µM
- IC50 (second compound 1 µM): > 10 µM
- IC50 (second compound 3.16 µM): < 0.0316 µM
- IC50 (second compound 10 µM): < 0.0316 µM
SMILES: C=CC(=O)N1CCN(c2nc(=O)n(-c3c(C)ccnc3C(C)C)c3nc(-c4c(O)cccc4F)c(F)cc23)C(C)C1 (stereo unspecified) + Cc1cnc(CNC(=O)c2c(=O)c3ccc(N4CCCN(C)CC4)nc3n3c2sc2ccccc23)cn1
- viability, T/C [1]: 103%
- viability, T/C [2]: 77%
- viability, T/C [3]: 95.1%
- viability, T/C [4]: 68.5%
- viability, T/C [5]: 75.7%
- viability, T/C [6]: 71.6%
- viability, T/C [7]: 89.2%
- viability, T/C [8]: 81.7%
- viability, T/C [9]: 82.3%
- viability, T/C [10]: 67.7%
- viability, T/C [11]: 102%
- viability, T/C [12]: 90.9%
- viability, T/C [13]: 85.7%
- viability, T/C [14]: 78.7%
- viability, T/C [15]: 70.5%
- viability, T/C [16]: 73.9%
- viability, T/C [17]: 92.6%
- viability, T/C [18]: 83.8%
- viability, T/C [19]: 67.6%
- viability, T/C [20]: 59.4%
- viability, T/C [21]: 60%
- viability, T/C [22]: 65.1%
- viability, T/C [23]: 77.6%
- viability, T/C [24]: 79.7%
- viability, T/C [25]: 37.7%
- viability, T/C [26]: 50.9%
- viability, T/C [27]: 54.2%
- viability, T/C [28]: 54.4%
- viability, T/C [29]: 64.1%
- viability, T/C [30]: 57.5%
- viability, T/C [31]: 34.2%
- viability, T/C [32]: 41.6%
- viability, T/C [33]: 44.5%
- viability, T/C [34]: 44.7%
- viability, T/C [35]: 58.6%
- viability, T/C [36]: 49.7%

- IC50 (second compound 0.0316 µM): > 10 µM
- IC50 (second compound 0.1 µM): > 10 µM
- IC50 (second compound 0.316 µM): > 10 µM
- IC50 (second compound 1 µM): > 10 µM
- IC50 (second compound 3.16 µM): < 0.0316 µM
- IC50 (second compound 10 µM): < 0.0316 µM
SMILES: Cc1cccc(N(C)C(=O)C2C(O)CCN2c2nc(C)cc(C(F)(F)F)c2C#N)c1 (stereo unspecified) + Cc1cnc(CNC(=O)c2c(=O)c3ccc(N4CCCN(C)CC4)nc3n3c2sc2ccccc23)cn1
- viability, T/C [1]: 110%
- viability, T/C [2]: 92.5%
- viability, T/C [3]: 76.6%
- viability, T/C [4]: 78.7%
- viability, T/C [5]: 87.5%
- viability, T/C [6]: 62.9%
- viability, T/C [7]: 87%
- viability, T/C [8]: 80%
- viability, T/C [9]: 102%
- viability, T/C [10]: 71%
- viability, T/C [11]: 87.9%
- viability, T/C [12]: 79.1%
- viability, T/C [13]: 72.5%
- viability, T/C [14]: 78.4%
- viability, T/C [15]: 51.4%
- viability, T/C [16]: 74.7%
- viability, T/C [17]: 77.5%
- viability, T/C [18]: 69.9%
- viability, T/C [19]: 62.1%
- viability, T/C [20]: 57.7%
- viability, T/C [21]: 57.8%
- viability, T/C [22]: 56.9%
- viability, T/C [23]: 83%
- viability, T/C [24]: 60.7%
- viability, T/C [25]: 38.8%
- viability, T/C [26]: 47%
- viability, T/C [27]: 54.8%
- viability, T/C [28]: 51.2%
- viability, T/C [29]: 67.8%
- viability, T/C [30]: 50.9%
- viability, T/C [31]: 32.1%
- viability, T/C [32]: 40%
- viability, T/C [33]: 46.6%
- viability, T/C [34]: 47.1%
- viability, T/C [35]: 59.5%
- viability, T/C [36]: 42.5%

- IC50 (second compound 0.0316 µM): > 10 µM
- IC50 (second compound 0.1 µM): > 10 µM
- IC50 (second compound 0.316 µM): > 10 µM
- IC50 (second compound 1 µM): > 10 µM
- IC50 (second compound 3.16 µM): > 10 µM
- IC50 (second compound 10 µM): < 0.0316 µM
SMILES: O=C(c1cc(Cc2n[nH]c(=O)c3ccccc23)ccc1F)N1CCN(C(=O)C2CC2)CC1 + Cc1cnc(CNC(=O)c2c(=O)c3ccc(N4CCCN(C)CC4)nc3n3c2sc2ccccc23)cn1
- viability, T/C [1]: 94.2%
- viability, T/C [2]: 101%
- viability, T/C [3]: 93.5%
- viability, T/C [4]: 77.7%
- viability, T/C [5]: 83.5%
- viability, T/C [6]: 90.9%
- viability, T/C [7]: 102%
- viability, T/C [8]: 79%
- viability, T/C [9]: 95.5%
- viability, T/C [10]: 57%
- viability, T/C [11]: 92.7%
- viability, T/C [12]: 87.3%
- viability, T/C [13]: 95.4%
- viability, T/C [14]: 63%
- viability, T/C [15]: 91.9%
- viability, T/C [16]: 74.7%
- viability, T/C [17]: 86.8%
- viability, T/C [18]: 80.8%
- viability, T/C [19]: 60.3%
- viability, T/C [20]: 69.6%
- viability, T/C [21]: 53.8%
- viability, T/C [22]: 57.4%
- viability, T/C [23]: 71%
- viability, T/C [24]: 66.2%
- viability, T/C [25]: 52.9%
- viability, T/C [26]: 53.3%
- viability, T/C [27]: 53.5%
- viability, T/C [28]: 46.6%
- viability, T/C [29]: 62.6%
- viability, T/C [30]: 51.1%
- viability, T/C [31]: 32.1%
- viability, T/C [32]: 53.5%
- viability, T/C [33]: 49.9%
- viability, T/C [34]: 48%
- viability, T/C [35]: 48.1%
- viability, T/C [36]: 40.2%
